Results taken from patent publication US20240316059A1, “PEPTIDE DRUG CONJUGATES” (Oncopeptides AB, priority 2021, published 2024).
Read-outs that look alike come from different tables or passages of the source.

How the values were obtained:
[1] = system: MM.1S cells; assay: In vitro cytotoxic potency in MM.1S cell viability assay (CellTiter-Glo); type: cell-based, human; conditions: Homo sapiens, MM1.S, 72 h
Description: Methods: MM.1S Cells were cultivated in RPMI medium 1640 (IX) supplemented with 10 μg/μL penicillin/streptomycin, 10% heat inactivated FBS, 0.1 mM Sodium Pyruvate, 1×MEM NEAA (ThermoFisher) and 1 mM HEPES. Cells were grown to reach log phase before being exposed to the test compounds.
(§1) Test compounds (Example compounds 1 to 36, 38 to 41 and 45 to 48) and comparative compounds (bendamustine, busulfan, melphalan, chlorambucil and 4-hydroperoxy cyclophosphamide) were dissolved in 100% DMSO and added to a 384 assay plate. Additional DMSO was added to maintain the same final DMSO concentration (0.2%) in all wells. 25 μL cell suspension with a concentration of 100000 cells/mL was added to each well. The cells were cultured in a CO2 incubator at 37° C. for 72 h. Plates were equilibrated to room temperature for 30 minutes before adding 20 μL CellTiter-Glo® 2.0 (Promega) reagent to all wells. The plate was then allowed to stabilize for 20 minutes before recording the luminescence (emission filter 700 nm) in an Envision plate reader.
(§2) All cells were cultivated in RPMI medium 1640 (IX). All media was supplemented with 10 μg/μl penicillin/streptomycin, 10% heat inactivated FBS, 0.1 mM Sodium Pyruvate, 1×MEM NEAA (ThermoFisher) and 1 mM HEPES. The DERL-2 cells had higher FBS (20%) and 40 ng/mL IL-2 was added. hPBMCs were thawed and allowed to acclimatise overnight and then stimulated with 10 μg/mL PHA-M and 40 ng/mL IL-2 for 4 hours before being exposed to test compounds. All cells, except for hPBMCs, were grown to reach log phase before being exposed to the test compounds.
as §1, with “compounds” for “compounds (Example compounds 1 to 36, 38 to 41 and 45 to 48) and comparative compounds (bendamustine, busulfan, melphalan, chlorambucil and 4-hydroperoxy cyclophosphamide)”, “(Em” for “(emission”

[2] = system: AMO-1; assay: In vitro cytotoxicity, AMO-1 (Multiple Myeloma); type: cell-based; conditions: Homo sapiens, AMO1; 72 h, CellTiter-Glo 2.0; read-out: Cytotoxicity IC50, AMO-1
Description: as §2
as §1, with “compounds” for “compounds (Example compounds 1 to 36, 38 to 41 and 45 to 48) and comparative compounds (bendamustine, busulfan, melphalan, chlorambucil and 4-hydroperoxy cyclophosphamide)”, “(Em” for “(emission”

[3] = system: EJM; assay: In vitro cytotoxicity, EJM (Multiple Myeloma); type: cell-based; conditions: Homo sapiens, 72 h, CellTiter-Glo 2.0, read-out: Cytotoxicity IC50, EJM
Description: as §2
as §1, with “compounds” for “compounds (Example compounds 1 to 36, 38 to 41 and 45 to 48) and comparative compounds (bendamustine, busulfan, melphalan, chlorambucil and 4-hydroperoxy cyclophosphamide)”, “(Em” for “(emission”

[4] = system: KMS-12-BM; assay: In vitro cytotoxicity, KMS-12-BM (Multiple Myeloma); type: cell-based; conditions: Homo sapiens, 72 h, CellTiter-Glo 2.0, read-out: Cytotoxicity IC50, KMS-12-BM
Description: as §2
as §1, with “compounds” for “compounds (Example compounds 1 to 36, 38 to 41 and 45 to 48) and comparative compounds (bendamustine, busulfan, melphalan, chlorambucil and 4-hydroperoxy cyclophosphamide)”, “(Em” for “(emission”

[5] = system: OPM-2; assay: In vitro cytotoxicity, OPM-2 (Multiple Myeloma); type: cell-based; conditions: Homo sapiens, OPM-2; 72 h, CellTiter-Glo 2.0; read-out: Cytotoxicity IC50, OPM-2
Description: as §2
as §1, with “compounds” for “compounds (Example compounds 1 to 36, 38 to 41 and 45 to 48) and comparative compounds (bendamustine, busulfan, melphalan, chlorambucil and 4-hydroperoxy cyclophosphamide)”, “(Em” for “(emission”

[6] = system: RPMI-8226; assay: In vitro cytotoxicity, RPMI-8226 (Multiple Myeloma, resistant); type: cell-based; conditions: Homo sapiens, RPMI-8226; 72 h, CellTiter-Glo 2.0; read-out: Cytotoxicity IC50, RPMI-8226
Description: as §2
as §1, with “compounds” for “compounds (Example compounds 1 to 36, 38 to 41 and 45 to 48) and comparative compounds (bendamustine, busulfan, melphalan, chlorambucil and 4-hydroperoxy cyclophosphamide)”, “(Em” for “(emission”

[7] = system: U266; assay: In vitro cytotoxicity, U266 (Multiple Myeloma); type: cell-based; conditions: Homo sapiens, U-266; 72 h, CellTiter-Glo 2.0; read-out: Cytotoxicity IC50, U266
Description: as §2
as §1, with “compounds” for “compounds (Example compounds 1 to 36, 38 to 41 and 45 to 48) and comparative compounds (bendamustine, busulfan, melphalan, chlorambucil and 4-hydroperoxy cyclophosphamide)”, “(Em” for “(emission”

[8] = system: SC-1; assay: In vitro cytotoxicity, SC-1 (B cell Lymphoma); type: cell-based; conditions: Homo sapiens, SC-1; 72 h, CellTiter-Glo 2.0; read-out: Cytotoxicity IC50, SC-1
Description: as §2
as §1, with “compounds” for “compounds (Example compounds 1 to 36, 38 to 41 and 45 to 48) and comparative compounds (bendamustine, busulfan, melphalan, chlorambucil and 4-hydroperoxy cyclophosphamide)”, “(Em” for “(emission”

[9] = In vitro cytotoxicity, BJ fibroblasts (normal cells); type: cell-based; conditions: human, CellTiter-Glo 2.0
Description: as §2
as §1, with “compounds” for “compounds (Example compounds 1 to 36, 38 to 41 and 45 to 48) and comparative compounds (bendamustine, busulfan, melphalan, chlorambucil and 4-hydroperoxy cyclophosphamide)”, “(Em” for “(emission”

[10] = system: U937; assay: In vitro cytotoxicity, U937 (Histiocytic Lymphoma); type: cell-based; conditions: Homo sapiens, U-937; 72 h, CellTiter-Glo 2.0; read-out: Cytotoxicity IC50, U937
Description: as §2
as §1, with “compounds” for “compounds (Example compounds 1 to 36, 38 to 41 and 45 to 48) and comparative compounds (bendamustine, busulfan, melphalan, chlorambucil and 4-hydroperoxy cyclophosphamide)”, “(Em” for “(emission”

[11] = system: SK-MM-1; assay: In vitro cytotoxicity, SK-MM-1 (Plasma Cell Leukemia); type: cell-based; conditions: Homo sapiens; 72 h, CellTiter-Glo 2.0; read-out: Cytotoxicity IC50, SK-MM-1
Description: as §2
as §1, with “compounds” for “compounds (Example compounds 1 to 36, 38 to 41 and 45 to 48) and comparative compounds (bendamustine, busulfan, melphalan, chlorambucil and 4-hydroperoxy cyclophosphamide)”, “(Em” for “(emission”

[12] = system: DOHH-2; assay: In vitro cytotoxicity, DOHH-2 (B Cell Lymphoma); type: cell-based; conditions: Homo sapiens, DOHH-2; 72 h, CellTiter-Glo 2.0; read-out: Cytotoxicity IC50, DOHH-2
Description: as §2
as §1, with “compounds” for “compounds (Example compounds 1 to 36, 38 to 41 and 45 to 48) and comparative compounds (bendamustine, busulfan, melphalan, chlorambucil and 4-hydroperoxy cyclophosphamide)”, “(Em” for “(emission”

[13] = system: HG-3; assay: In vitro cytotoxicity, HG-3 (Chronic Lymphocytic Leukemia); type: cell-based; conditions: Homo sapiens, HG-3; 72 h, CellTiter-Glo 2.0; read-out: Cytotoxicity IC50, HG-3
Description: as §2
as §1, with “compounds” for “compounds (Example compounds 1 to 36, 38 to 41 and 45 to 48) and comparative compounds (bendamustine, busulfan, melphalan, chlorambucil and 4-hydroperoxy cyclophosphamide)”, “(Em” for “(emission”

[14] = system: SU-DHL-8; assay: In vitro cytotoxicity, SU-DHL-8 (B-cell non-Hodgkin Lymphoma); type: cell-based; conditions: Homo sapiens, SU-DHL-8; 72 h, CellTiter-Glo 2.0; read-out: Cytotoxicity IC50, SU-DHL-8
Description: as §2
as §1, with “compounds” for “compounds (Example compounds 1 to 36, 38 to 41 and 45 to 48) and comparative compounds (bendamustine, busulfan, melphalan, chlorambucil and 4-hydroperoxy cyclophosphamide)”, “(Em” for “(emission”

[15] = system: Toledo; assay: In vitro cytotoxicity, Toledo (Diffuse Large B Cell Lymphoma); type: cell-based; conditions: Homo sapiens, 72 h, CellTiter-Glo 2.0, read-out: Cytotoxicity IC50, Toledo
Description: as §2
as §1, with “compounds” for “compounds (Example compounds 1 to 36, 38 to 41 and 45 to 48) and comparative compounds (bendamustine, busulfan, melphalan, chlorambucil and 4-hydroperoxy cyclophosphamide)”, “(Em” for “(emission”

[16] = system: DNA prepared from MM.1S cells (nuclear HPRT and mitochondrial DNA); assay: Direct DNA damage, PCR amplification of treated DNA (HPRT and mtDNA primers); type: biochemical, human; conditions: 0.25 μM compound, 30 minutes, 37° C., 1 μg DNA
Description: Method: DNA was prepared from MM.1S cells by QIAGEN genomic tip 20/G according to protocol described in Furda et al., Methods Mol Biol, 2012. 1 μg of DNA was treated with 0.25 μM compound for 30 minutes at 37° C. DMSO was used as control treatment. 20 ng of the treated DNA was PCR amplified using Phusion Hot Start II High Fidelity PCR Master Mix (Thermo Scientific) and primers directed to either HPRT or primers directed to mitochondrial DNA (mtDNA) was used, generating 10.4 or 8.9 kb fragments, respectively. The PCR reactions were separated on a 1% agarose gel and visualized by ChemiDoc™ MP Imaging System (BioRad). Example compounds 1, 2 and 38 were investigated, as were compounds 18 and 20, which are metabolites of compound 1. They were compared with bendamustine, melphalan and DMSO control. The results for compounds 1, 2, 18 and 20 with the HPRT primers are shown in FIG. 4(A); the results with the mtDNA primers are shown in FIG. 4(B).

[17] = read-out: Cytotoxicity IC50, MM.1S

Row | SMILES | IC50 [1, 17] | IC50 ([1]; read-out: MM.1S IC50) | IC50 [2] | IC50 [3] | IC50 [4] | IC50 [5] | IC50 [6] | IC50 [7] | IC50 [8] | IC50 at 72 h [9] | IC50 [10] | IC50 [11] | IC50 [12] | IC50 [13] | IC50 [14] | IC50 [15] | DNA damage on nuclear and mitochondrial DNA (PCR band) [16]
1 | CC(C)C[C@H](NC(=O)[C@@H](N)CCc1nc2cc(N(CCCl)CCCl)ccc2n1C)C(=O)N(C)C [Example 30, (2S)-2-[[(2S)-2-Amino-4-[5-[bis(2-chloroethyl)amino]-1-methyl-benzimidazol-2-yl]butanoyl]amino]-N,N,4-trimethyl-pentanamide] | 0.0397 µM | 0.0397 µM | 0.653 µM | 0.173 µM | 0.045 µM | 0.322 µM | 0.492 µM | 0.131 µM | 0.0537 µM | > 2 µM |  |  |  |  |  |  | 
2 | CCOC(=O)[C@H](Cc1ccc(F)cc1)NC(=O)[C@H](CCc1nc2cc(N(CCCl)CCCl)ccc2n1C)NC(C)=O [Example 34, Ethyl (2S)-2-[[(2S)-2-acetamido-4-[5-[bis(2-chloroethyl)amino]-1-methyl-benzimidazol-2-yl]butanoyl]amino]-3-(4-fluorophenyl)propanoate] | 0.0683 µM | 0.0683 µM | 0.758 µM | 0.637 µM | 0.105 µM | 0.961 µM | 1.45 µM | 0.266 µM | 1.06 µM | > 2 µM | 0.397 µM | 0.604 µM | 0.543 µM | 0.888 µM | 0.202 µM | 0.328 µM | 
3 | CCOC(=O)[C@@H](N)CCc1nc2cc(N(CCCl)CCCl)ccc2n1C.Cl.Cl [Example 38, Ethyl (2S)-2-amino-4-[5-[bis(2-chloroethyl)amino]-1-methyl-benzimidazol-2-yl]butanoate] | 0.052 µM | 0.052 µM |  |  |  |  | 0.676 µM |  | 0.0772 µM |  | 0.0253 µM | 0.175 µM | 0.0281 µM | 0.0498 µM | 0.0714 µM | 0.0162 µM | effectively damaged both nuclear and mitochondrial DNA
